Measurements as given in PMC11092066, “Novel analogues of a nonnucleoside SARS-CoV-2 RdRp inhibitor as potential antivirotics” (Beilstein Journal of Organic Chemistry, 2024).

Biological target: SARS-CoV-2 RdRp (nsp12, nsp7, nsp8 polymerase complex) (Severe acute respiratory syndrome coronavirus 2, UniProt P0DTD1)
Test: biochemical
Assay type: biochemical
Details: for BEI (binding efficiency index): calculated as pIC50 [mol/L]/MW [kDa] from SARS-CoV-2 RdRp IC50; for IC50: recombinant RdRp: 1 μM nsp12, 3 μM nsp7, 3 μM nsp8, 0.5 μM template/primer RNA, 10 μM NTPs, 1 h at 30 °C, GraphPad fit

Structure (SMILES)	BEI (binding efficiency index)	IC50 [µM]	inhibitory activity against SARS-CoV-2 RdRp (in words) (primer extension polymerase assay)
Cn1cc(C(=O)N[C@@H](Cc2ccc(O)cc2)C(=O)O)cc(-c2ccccc2)c1=O [3a]	9.9		
Cn1cc(C(=O)N[C@@H](Cc2ccc(O)cc2)C(=O)O)cc(-c2cccnc2)c1=O [3b]	9.4	204	
Cn1cc(C(=O)N[C@@H](Cc2ccc(O)cc2)C(=O)O)cc(-c2ccsc2)c1=O [3c]	10.2	88.1	
O=C(N[C@@H](Cc1ccc(O)cc1)C(=O)O)c1cc(-c2ccccc2)c(=O)n2ccsc12 [4a]	9.3	88.1	
Cc1nn2c(=O)c(-c3ccccc3)cc(C(=O)N[C@@H](Cc3ccc(O)cc3)C(=O)O)c2s1 [4b]	8.8	113	
O=C(N[C@@H](Cc1ccc(O)cc1)C(=O)O)c1cc(-c2ccccc2)c(=O)n2c1sc1ccc(OC3CCCCC3)cc12 [compound 1, HeE1-2Tyr, reference compound]	7.8		
O=C(N[C@@H](Cc1ccc(O)cc1)C(=O)O)c1cc(-c2ccccc2)c(=O)n2c1oc1ccc(OC3CCCCC3)cc12 [compound 2]			devoid of any activity
O=C(N[C@@H](Cc1ccc(O)cc1)C(=O)O)c1cc(-c2ccccc2)c(=O)n(-c2cc(OC3CCCCC3)ccc2O)c1O [compound 16]	6.7	114	
